These results are taken from patent US20120172598A1, “COMPOUNDS HAVING TAFIa INHIBITORY ACTIVITY” (TAISHO PHARMACEUTICAL CO., LTD., priority 2009, published 2012).

Counter-ions that a name gives are not always drawn.

This assay has as its target T1, TAFIa (Homo sapiens, UniProt Q96IY4).
T1 construct: purchased Enzyme Research Laboratories
T1 sequence (Q96IY4 115-423): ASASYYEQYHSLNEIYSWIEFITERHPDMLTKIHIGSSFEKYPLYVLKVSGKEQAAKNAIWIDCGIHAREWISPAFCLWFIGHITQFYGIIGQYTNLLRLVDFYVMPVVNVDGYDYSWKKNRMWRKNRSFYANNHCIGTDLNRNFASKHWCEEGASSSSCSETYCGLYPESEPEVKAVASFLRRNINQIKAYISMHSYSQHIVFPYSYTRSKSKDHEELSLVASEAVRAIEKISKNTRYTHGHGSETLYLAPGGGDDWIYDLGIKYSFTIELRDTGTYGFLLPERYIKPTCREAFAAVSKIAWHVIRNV
Kind of assay: TAFIa inhibition test (Hip-Arg substrate, absorbance at 405 nm). Type of assay: biochemical. The note with it: TAFI activated with thrombin/thrombomodulin, 40 minutes at room temperature, read-out: TAFIa inhibitory activity IC50. Here is the method: Test 1 [TAFIa Inhibition Test]
Compounds of the present invention were measured for their TAFIa inhibitory activity as follows based on the method described in Thromb. Haemost. 79, 371-377 (1998).
(a) Preparation of TAFIa Solution
To 450 μl of TAFI (the product of Enzyme Research Laboratories whose concentration was adjusted to 18 μg/ml with buffer A: 100 mM Tris-HCl, pH 7.4), 45 μl of a thrombomodulin solution (a rabbit lung derived thrombomodulin produced by American Diagnostica whose concentration was adjusted to 1 μg/ml with buffer B: 50 mM Tris-HCl, pH 7.5, containing 0.15 M NaCl) and 45 μl of a thrombin solution (a freeze-dried human plasma derived thrombin produced by Sigma and dissolved in water to have a concentration of 30 μU/ml) were added and the mixture was left to stand at room temperature for 25 minutes.
(b) Method of Measuring TAFIa Inhibitory Activity […]
Subsequently, a color former (1% cyanuric chloride in 1,4-dioxane) was added in an amount of 50 μl to each well and the plate was left to stand for 3 minutes at room temperature, then absorbance at 405 nm was measured with a microplate reader (Spectramax M2 of Molecular Devices). […]
For two compounds of the present invention, the above test was conducted and on the basis of the results of measurements, TAFIa inhibitory activity was calculated to give the results shown in Table 2.

`N[C@H]1CCN([C@@H](Cc2ncn3c2CCc2ccccc2-3)C(=O)O)C1` [Compound 1, (2S)-2-[(3S)-3-aminopyrrolidin-1-yl]-3-(4,5-dihydroimidazo[1,5-a]quinolin-3-yl)propanoic acid trihydrochloride]: the IC50 turned out to be 36 nM. For the molecule `Cc1ccc2c(c1)CCc1c(C[C@@H](C(=O)O)N3CC[C@H](N)C3)ncn1-2` [Compound 2, (2S)-2-[(3S)-3-aminopyrrolidin-1-yl]-3-(7-methyl-4,5-dihydroimidazo[1,5-a]quinolin-3-yl)propanoic acid trihydrochloride], the IC50 came out at 23 nM.

What is called IC50 is the concentration needed to halve the response being measured.
